Measured values published in patent US20190055279A1, “NOVEL POLYPEPTIDES WITH IMPROVED PROTEOLYTIC STABILITY, AND METHODS OF PREPARING AND USING SAME” (TUFTS UNIVERSITY, priority 2015, published 2019).
Entries after “also recorded” stand apart in the source; their conditions may differ. One block for each molecule: values may come before it. Where a SMILES comes first, the peptide text is derived from it. Side-chain parts run from the residue outwards. [ ]: non-standard residue; d: D form. The star is where a group is joined. N(CH2CF3)His = O=C(O)[C@H](Cc1c[nH]cn1)NCC(F)(F)F; Palmitoyl = CCCCCCCCCCCCCCCC(=O)*; βAla = NCCC(=O)O

How the values were obtained:
DPP4 [1] = target: T1, DPP4 (Homo sapiens, UniProt P27487); assay: Sensitivity to DPP4: overnight incubation with recombinant DPP4 or vehicle, then receptor agonist bioassay; settings: for DPP4 degradation / resistance (in words): overnight incubation with or without DPP4, readout at cognate receptor
Protocol: Plotting concentration versus the luciferase activity yielded quantitative parameters for combined binding (potency) and signaling (efficacy) in a single step. […] DPP4 treated peptides: 10 μl of 0.26 mM peptide were incubated with 2 μL DPP4 in buffer ±DMSO for 18 hrs. Control peptides: 10 μl of 0.26 mM peptide was added to buffer ±DMSO. The final DMSO concentration was the same for all peptides and all peptides were diluted to 0.26 mM concentrations for the DPP4 assay.
Compounds are incubated overnight at 37° C. in the presence of recombinant DPP4 or vehicle (TRIS buffer). The samples are then assessed in GLP-1R agonist assays.
Compounds were incubated overnight at 37° C. in the presence of recombinant DPP4 or vehicle (TRIS buffer, pH 8.0). The samples were then assessed in GLP1R agonist assays as described elsewhere herein.

DPP4 [2] = target: T1, DPP4; assay: DPP4 degradation of GLP-2 peptides: incubation with recombinant DPP4, then GLP-2R reporter assay; settings: GLP-2R readout
Protocol: Peptides were incubated with vehicle or recombinant DPP4. Serial dilutions of GLP2-1 and GLP2-4 were then applied to HEK293 cells, which had been transfected with cDNA encoding human GLP-2R and a cAMP-responsive reporter gene.
Peptides were incubated with recombinant DPP4. Serial dilutions of GLP-2 and GLP2-4 were then applied to HEK293 cells, which had been transfected with cDNA encoding human GLP-2R and a cAMP-responsive reporter gene. […] N=4, mean+SEM.
DPP4 resistance (FIG. 13): Lipidated peptides are compared with the prototype, F-GLP2-palm. After an overnight incubation (16 hrs) in the presence vs. the absence of DPP4, receptor mediated function is assessed as shown elsewhere herein. As a DPP4 susceptible control, parallel experiments are done using GLP-2. […] Following overnight preincubation, serial dilutions of ligands were prepared and added to GLP-2R expressing cells for 4 hours. A luciferase reporter gene assay was used to monitor Gαs coupled second messenger signaling.

[3] = Plasma GLP-2R agonist activity 24 h after s.c. injection in mice (luciferase reporter gene assay); assay type: in vivo; settings: 1.25 μg s.c., compared with Gattex
Protocol: Clearance of this compound was compared to that of Gattex, an established GLP-2 based drug, Compounds (1.25 μg) were injected subcutaneously (s.c.) in mice. Plasma was collected after 24 h and analyzed by luciferase reporter gene assay for GLP-2R agonist activity.
Compounds (1.25 μg) were injected s.c. in mice. Plasma was collected after 24 h and analyzed by luciferase reporter gene assay for GLP-2R agonist activity.

C57BL/6J mice = assay: Intestinal mucosal growth after five daily s.c. injections in C57BL/6J mice; assay type: in vivo; settings: s.c. once daily for five days; for intestinal mucosal growth / trophic effect: 25 μg/mouse for villus height; for intestinal weight: sacrificed on day 6, N=6 animals/group
Protocol: C57BL/6J mice were injected s.c. once daily for five days with either vehicle, GLP2-L17K(l1)-4, or Gattex at indicated doses. Animals were sacrificed on day 6, followed by analysis of intestinal tissue.
C57BL/6J mice were injected s.c. once daily for five days with either vehicle, GLP2-L17K [L1]-4 or Gattex at indicated doses. Animals were sacrificed on day 6, followed by measurement of intestinal weight. […] C57BL/6J mice were injected s.c. once daily for five days with either 25 μg of GLP2-L17K [L1]-4 or vehicle. Animals were sacrificed on day 6.

T1 sequence (P27487 whole entry, species assumed): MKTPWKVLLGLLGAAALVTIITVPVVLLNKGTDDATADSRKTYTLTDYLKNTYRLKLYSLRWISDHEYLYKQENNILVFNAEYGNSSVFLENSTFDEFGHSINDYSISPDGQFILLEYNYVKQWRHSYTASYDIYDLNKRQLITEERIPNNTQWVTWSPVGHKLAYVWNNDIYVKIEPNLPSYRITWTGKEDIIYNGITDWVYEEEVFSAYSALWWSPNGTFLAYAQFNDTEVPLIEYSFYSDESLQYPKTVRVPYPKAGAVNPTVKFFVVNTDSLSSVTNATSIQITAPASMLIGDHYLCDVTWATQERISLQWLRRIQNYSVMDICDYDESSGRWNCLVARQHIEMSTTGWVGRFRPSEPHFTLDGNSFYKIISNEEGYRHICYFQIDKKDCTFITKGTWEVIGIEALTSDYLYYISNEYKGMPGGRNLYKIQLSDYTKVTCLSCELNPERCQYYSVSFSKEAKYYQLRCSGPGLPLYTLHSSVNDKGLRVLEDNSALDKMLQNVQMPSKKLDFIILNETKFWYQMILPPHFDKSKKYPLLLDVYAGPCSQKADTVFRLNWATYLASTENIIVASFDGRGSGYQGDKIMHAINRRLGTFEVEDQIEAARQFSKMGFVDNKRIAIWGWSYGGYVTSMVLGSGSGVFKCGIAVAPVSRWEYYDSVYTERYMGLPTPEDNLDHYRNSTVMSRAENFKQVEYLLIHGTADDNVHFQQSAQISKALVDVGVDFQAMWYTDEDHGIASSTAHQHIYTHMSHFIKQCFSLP

Molecule: CC[C@H](C)[C@H](NC(=O)[C@H](C)NC(=O)[C@H](CC(=O)O)NC(=O)[C@H](C)NC(=O)[C@H](Cc1ccc(O)cc1)NCC(F)(F)F)C(=O)N[C@@H](Cc1ccccc1)C(=O)N[C@H](C(=O)N[C@@H](CC(N)=O)C(=O)N[C@@H](CO)C(=O)N[C@@H](Cc1ccc(O)cc1)C(=O)N[C@@H](CCCNC(=N)N)C(=O)N[C@@H](CCCCN)C(=O)N[C@H](C(=O)N[C@@H](CC(C)C)C(=O)NCC(=O)N[C@@H](CCC(N)=O)C(=O)N[C@@H](CC(C)C)C(=O)N[C@@H](CO)C(=O)N[C@@H](C)C(=O)N[C@@H](CCCNC(=N)N)C(=O)N[C@@H](CCCCN)C(=O)N[C@@H](CC(C)C)C(=O)N[C@@H](CC(C)C)C(=O)N[C@@H](CCC(N)=O)C(=O)N[C@@H](CC(=O)O)C(=O)N[C@H](C(=O)N[C@@H](CCSC)C(=O)N[C@@H](CO)C(=O)N[C@@H](CCCNC(=N)N)C(N)=O)[C@@H](C)CC)C(C)C)[C@@H](C)O [GH29-4]
DPP4 degradation / resistance (in words) (DPP4 [1]): resistant to enzyme induced potency loss

Molecule: CC[C@H](C)[C@H](NC(=O)[C@H](Cc1ccccc1)NC(=O)[C@H](CC(=O)O)NC(=O)[C@H](CCCNC(=N)N)NC(=O)[C@H](C)NC(=O)[C@H](C)NC(=O)[C@H](CC(C)C)NC(=O)[C@H](CC(N)=O)NC(=O)[C@H](CC(=O)O)NC(=O)[C@H](CC(C)C)NC(=O)[C@@H](NC(=O)[C@@H](NC(=O)[C@H](CC(N)=O)NC(=O)[C@H](CCSC)NC(=O)[C@H](CCC(=O)O)NC(=O)[C@H](CC(=O)O)NC(=O)[C@H](CO)NC(=O)[C@H](Cc1ccccc1)NC(=O)[C@H](CO)NC(=O)CNC(=O)[C@H](CC(=O)O)NC(=O)[C@H](C)NC(=O)[C@H](Cc1c[nH]cn1)NCC(F)(F)F)[C@@H](C)O)[C@@H](C)CC)C(=O)N[C@@H](CC(N)=O)C(=O)N[C@@H](Cc1c[nH]c2ccccc12)C(=O)N[C@@H](CC(C)C)C(=O)N[C@H](C(=O)N[C@@H](CCC(N)=O)C(=O)N[C@H](C(=O)N[C@@H](CCCCN)C(=O)N[C@H](C(=O)N[C@H](C(=O)N[C@@H](CC(=O)O)C(=O)O)[C@@H](C)O)[C@@H](C)CC)[C@@H](C)O)[C@@H](C)CC [GLP2-4]
DPP4 degradation / resistance (in words) (DPP4 [2]): no potency loss; also recorded: completely resistant to degradation | DPP4 degradation / resistance (in words) (DPP4 [2]; listed as GLP-2-4): no potency loss

Molecule: CCCCCCCCCCCCCCCC(=O)NCCC(=O)NCCCC[C@H](NC(=O)[C@H](CC(N)=O)NC(=O)[C@H](CC(=O)O)NC(=O)[C@H](CC(C)C)NC(=O)[C@@H](NC(=O)[C@@H](NC(=O)[C@H](CC(N)=O)NC(=O)[C@H](CCSC)NC(=O)[C@H](CCC(=O)O)NC(=O)[C@H](CC(=O)O)NC(=O)[C@H](CO)NC(=O)[C@H](Cc1ccccc1)NC(=O)[C@H](CO)NC(=O)CNC(=O)[C@H](CC(=O)O)NC(=O)[C@H](C)NC(=O)[C@H](Cc1c[nH]cn1)NCC(F)(F)F)[C@@H](C)O)[C@@H](C)CC)C(=O)N[C@@H](C)C(=O)N[C@@H](C)C(=O)N[C@@H](CCCNC(=N)N)C(=O)N[C@@H](CC(=O)O)C(=O)N[C@@H](Cc1ccccc1)C(=O)N[C@H](C(=O)N[C@@H](CC(N)=O)C(=O)N[C@@H](Cc1c[nH]c2ccccc12)C(=O)N[C@@H](CC(C)C)C(=O)N[C@H](C(=O)N[C@@H](CCC(N)=O)C(=O)N[C@H](C(=O)N[C@@H](CCCCN)C(=O)N[C@H](C(=O)N[C@H](C(=O)N[C@@H](CC(=O)O)C(=O)O)[C@@H](C)O)[C@@H](C)CC)[C@@H](C)O)[C@@H](C)CC)[C@@H](C)CC [GLP2-L17K(l1)-4] (H-[N(CH2CF3)His]ADGSFSDEMNTILDNK([βAla-Palmitoyl])AARDFINWLIQTKITD-OH; N-terminus and C-terminus assumed)
bioactivity in plasma 24 h after injection [3]: extended bioactivity in vivo | bioactivity in plasma 24 h after injection ([3]; listed as GLP2-L17K [L1]-4): remains at high levels in the circulation | intestinal mucosal growth / trophic effect (C57BL/6J mice): induces intestinal mucosal growth | intestinal mucosal growth / trophic effect (C57BL/6J mice; listed as GLP2-L17K [L1]-4): trophic effect on the intestinal mucosa | intestinal weight (C57BL/6J mice): enhances intestinal weight | intestinal weight (C57BL/6J mice; listed as GLP2-L17K [L1]-4): increased intestinal weight in a dose dependent manner | DPP4 degradation / resistance (in words) (DPP4 [2]): refractory to DPP4 degradation | DPP4 degradation / resistance (in words) (DPP4 [2]; listed as F-GLP2-palm): protease (DPP4) resistant

Molecule: CC[C@H](C)[C@H](NC(=O)[C@H](Cc1ccccc1)NC(=O)[C@H](CCC(=O)O)NC(=O)[C@H](CCCCN)NC(=O)[C@H](C)NC(=O)[C@H](C)NC(=O)[C@H](CCC(N)=O)NC(=O)CNC(=O)[C@H](CCC(=O)O)NC(=O)[C@H](CC(C)C)NC(=O)[C@H](Cc1ccc(O)cc1)NC(=O)[C@H](CO)NC(=O)[C@H](CO)NC(=O)[C@@H](NC(=O)[C@H](CC(=O)O)NC(=O)[C@H](CO)NC(=O)[C@@H](NC(=O)[C@H](Cc1ccccc1)NC(=O)[C@@H](NC(=O)CNC(=O)[C@H](CCC(=O)O)NC(=O)[C@H](C)NC(=O)[C@H](Cc1c[nH]cn1)NCc1ccccc1)[C@@H](C)O)[C@@H](C)O)C(C)C)C(=O)N[C@@H](C)C(=O)N[C@@H](Cc1c[nH]c2ccccc12)C(=O)N[C@@H](CC(C)C)C(=O)N[C@H](C(=O)N[C@@H](CCCCN)C(=O)NCC(=O)N[C@@H](CCCNC(=N)N)C(N)=O)C(C)C [benzyl]
DPP4 degradation / resistance (in words) (DPP4 [1]): virtually complete DPP4 resistance

Molecule: CCCCCCCCCCCCCCCC(=O)N[C@@H](CCC(=O)NCCCC[C@H](NC(=O)[C@H](C)NC(=O)[C@H](C)NC(=O)[C@H](CCC(N)=O)NC(=O)CNC(=O)[C@H](CCC(=O)O)NC(=O)[C@H](CC(C)C)NC(=O)[C@H](Cc1ccc(O)cc1)NC(=O)[C@H](CO)NC(=O)[C@H](CO)NC(=O)[C@@H](NC(=O)[C@H](CC(=O)O)NC(=O)[C@H](CO)NC(=O)[C@@H](NC(=O)[C@H](Cc1ccccc1)NC(=O)[C@@H](NC(=O)CNC(=O)[C@H](CCC(=O)O)NC(=O)[C@H](C)NC(=O)[C@@H](N)Cc1cnc[nH]1)[C@@H](C)O)[C@@H](C)O)C(C)C)C(=O)N[C@@H](CCC(=O)O)C(=O)N[C@@H](Cc1ccccc1)C(=O)N[C@H](C(=O)N[C@@H](C)C(=O)N[C@@H](Cc1c[nH]c2ccccc12)C(=O)N[C@@H](CC(C)C)C(=O)N[C@H](C(=O)N[C@@H](CCCNC(=N)N)C(=O)NCC(=O)N[C@@H](CCCNC(=N)N)C(=O)NCC(=O)O)C(C)C)[C@@H](C)CC)C(=O)O [liraglutide]
potency loss after incubation with DPP4 (DPP4 [1]; overnight incubation with the enzyme, GLP-1R readout): > 50 fold

Molecule: Glucagon
DPP4 degradation / resistance (in words) (DPP4 [1]): degraded by DPP4

Now from value to molecule:

DPP4 degradation / resistance (in words) (DPP4 [1]): virtually complete DPP4 resistance
Molecule: CC[C@H](C)[C@H](NC(=O)[C@H](Cc1ccccc1)NC(=O)[C@H](CCC(=O)O)NC(=O)[C@H](CCCCN)NC(=O)[C@H](C)NC(=O)[C@H](C)NC(=O)[C@H](CCC(N)=O)NC(=O)CNC(=O)[C@H](CCC(=O)O)NC(=O)[C@H](CC(C)C)NC(=O)[C@H](Cc1ccc(O)cc1)NC(=O)[C@H](CO)NC(=O)[C@H](CO)NC(=O)[C@@H](NC(=O)[C@H](CC(=O)O)NC(=O)[C@H](CO)NC(=O)[C@@H](NC(=O)[C@H](Cc1ccccc1)NC(=O)[C@@H](NC(=O)CNC(=O)[C@H](CCC(=O)O)NC(=O)[C@H](C)NC(=O)[C@H](Cc1c[nH]cn1)NCC(C)C)[C@@H](C)O)[C@@H](C)O)C(C)C)C(=O)N[C@@H](C)C(=O)N[C@@H](Cc1c[nH]c2ccccc12)C(=O)N[C@@H](CC(C)C)C(=O)N[C@H](C(=O)N[C@@H](CCCCN)C(=O)NCC(=O)N[C@@H](CCCNC(=N)N)C(N)=O)C(C)C [G-6, isobutyl GLP-1]

DPP4 degradation / resistance (in words) (DPP4 [1]): stability against DPP4
Molecule: CC[C@H](C)[C@H](NC(=O)[C@H](Cc1ccccc1)NC(=O)[C@H](CCC(=O)O)NC(=O)[C@H](CCCCN)NC(=O)[C@H](C)NC(=O)[C@H](C)NC(=O)[C@H](CCC(N)=O)NC(=O)CNC(=O)[C@H](CCC(=O)O)NC(=O)[C@H](CC(C)C)NC(=O)[C@H](Cc1ccc(O)cc1)NC(=O)[C@H](CO)NC(=O)[C@H](CO)NC(=O)[C@@H](NC(=O)[C@H](CC(=O)O)NC(=O)[C@H](CO)NC(=O)[C@@H](NC(=O)[C@H](Cc1ccccc1)NC(=O)[C@@H](NC(=O)CNC(=O)[C@H](CCC(=O)O)NC(=O)[C@H](C)NC(=O)[C@H](Cc1c[nH]cn1)NC(C)=O)[C@@H](C)O)[C@@H](C)O)C(C)C)C(=O)N[C@@H](C)C(=O)N[C@@H](Cc1c[nH]c2ccccc12)C(=O)N[C@@H](CC(C)C)C(=O)N[C@H](C(=O)N[C@@H](CCCCN)C(=O)NCC(=O)N[C@@H](CCCNC(=N)N)C(N)=O)C(C)C [GLP-1b]
